From patent publication US6432972B1, “Treating allergic and inflammatory conditions” (Schering Corporation, priority 2000, dated 2002)

How the values were obtained:
[1] = test system: seasonal allergic rhinitis patients; assay: double-blinded, randomized clinical trials in seasonal allergic rhinitis patients; type: in vivo, human
Description: Efficacy endpoints in all the studies were Total Symptom Score, Total Nasal Symptom Score, Total Non-nasal Symptom Score, and Health Quality of Life (HQOL) analysis in efficacy trials. […] An important efficacy endpoint analyzed in the desloratadine studies is the AM NOW total symptom score. This parameter measures the total symptom relief by the patient after 24 hours before taking the next day dose.

[2] = stability of free base versus acid addition salt; type: physicochemical
Excerpt: Such pharmaceutical compositions may be formulated by combining desloratadine or an equivalent amount of a pharmaceutically acceptable salt thereof with a suitable, inert, pharmaceutically acceptable carrier or diluent that may be either solid or liquid. Desloratadine may be converted into the pharmaceutically acceptable acid addition salts by admixing it with an equivalent amount of a pharmaceutically acceptable acid. Typically suitable pharmaceutically acceptable acids include the mineral acids, e.g., HNO3, H2SO4, H3PO4, HCl, HBr, organic acids, including, but not limited to, acetic, trifluoroacetic, propionic, lactic, maleic, succinic, tartaric, glucuronic and citric acids as well as alkyl or arylsulfonic acids, such as p-toluenesulfonic acid, 2-naphthalenesulfonic acid, or methanesulfonic acid. The preferred pharmaceutically acceptable salts are trifluoroacetate, tosylate, mesylate, and chloride.

patients with SAR = assay: pooled randomized, parallel-group, double-blind, placebo-controlled studies; nasal congestion/stuffiness severity score in patients with SAR; type: in vivo, human; conditions: for nasal congestion/stuffiness, 14-day average change in symptom severity score from baseline: baseline score 2.4
Description: The severity (0=none, 1=mild, 2=moderate, 3=severe) of congestion/stuffiness was assessed by patients for the study duration. The 14-day average change in symptom severity score from baseline was assessed. The mean symptom severity score for nasal congestion/stuffiness was 2.4 in each treatment group at baseline, indicating patients had moderate-to-severe nasal congestion before receiving treatment.

SMILES: Clc1ccc2c(c1)CCc1cccnc1C2=C1CCNCC1 [Desloratadine]
- total symptom scores (sum of individual scores for rhinorrhea, sneezing, congestion/stuffiness, nasal itching, itchy/burning eyes, tearing, ocular redness, itchy ears/palate) ([1]; 5 mg once daily, adult and adolescent seasonal allergic rhinitis patients): significantly reduced
- AM NOW total symptom score (symptom relief after 24 hours, before next day dose) ([1]; 5 mg to 20 mg dosage range, p<0.05): Statistically significant (p<0.05) reductions were maintained for the full 24 hour dosing interval
- reducing nasal symptoms vs placebo ([1]; 5 mg, p<0.01 vs placebo): significantly (p<0.01) more effective than placebo
- stability, free base compared with acid addition salt [2]: more stable as the free base than as an acid addition salt
- nasal congestion/stuffiness, 14-day average change in symptom severity score from baseline (patients with SAR; 5 mg PO once a day for 14 days, P=0.02 vs placebo): significantly decreased
- total symptom severity (patients with SAR; 5 mg or 7.5 mg PO once a day for 14 days, vs placebo): significantly decreased
- nasal congestion/stuffiness, 14-day average change in symptom severity score from baseline (patients with SAR; 7.5 mg PO once a day for 14 days, P=0.01 vs placebo): significantly decreased
